Results as given in ChEMBL document CHEMBL3108715, “Pan-histone demethylase inhibitors simultaneously targeting Jumonji C and lysine-specific demethylases display high anticancer activities” (J Med Chem, 2014).

Assays:
[1] = target: T1, Lysine-specific demethylase 3A (Homo sapiens, UniProt Q9Y4C1)
T1 sequence (Q9Y4C1 whole entry): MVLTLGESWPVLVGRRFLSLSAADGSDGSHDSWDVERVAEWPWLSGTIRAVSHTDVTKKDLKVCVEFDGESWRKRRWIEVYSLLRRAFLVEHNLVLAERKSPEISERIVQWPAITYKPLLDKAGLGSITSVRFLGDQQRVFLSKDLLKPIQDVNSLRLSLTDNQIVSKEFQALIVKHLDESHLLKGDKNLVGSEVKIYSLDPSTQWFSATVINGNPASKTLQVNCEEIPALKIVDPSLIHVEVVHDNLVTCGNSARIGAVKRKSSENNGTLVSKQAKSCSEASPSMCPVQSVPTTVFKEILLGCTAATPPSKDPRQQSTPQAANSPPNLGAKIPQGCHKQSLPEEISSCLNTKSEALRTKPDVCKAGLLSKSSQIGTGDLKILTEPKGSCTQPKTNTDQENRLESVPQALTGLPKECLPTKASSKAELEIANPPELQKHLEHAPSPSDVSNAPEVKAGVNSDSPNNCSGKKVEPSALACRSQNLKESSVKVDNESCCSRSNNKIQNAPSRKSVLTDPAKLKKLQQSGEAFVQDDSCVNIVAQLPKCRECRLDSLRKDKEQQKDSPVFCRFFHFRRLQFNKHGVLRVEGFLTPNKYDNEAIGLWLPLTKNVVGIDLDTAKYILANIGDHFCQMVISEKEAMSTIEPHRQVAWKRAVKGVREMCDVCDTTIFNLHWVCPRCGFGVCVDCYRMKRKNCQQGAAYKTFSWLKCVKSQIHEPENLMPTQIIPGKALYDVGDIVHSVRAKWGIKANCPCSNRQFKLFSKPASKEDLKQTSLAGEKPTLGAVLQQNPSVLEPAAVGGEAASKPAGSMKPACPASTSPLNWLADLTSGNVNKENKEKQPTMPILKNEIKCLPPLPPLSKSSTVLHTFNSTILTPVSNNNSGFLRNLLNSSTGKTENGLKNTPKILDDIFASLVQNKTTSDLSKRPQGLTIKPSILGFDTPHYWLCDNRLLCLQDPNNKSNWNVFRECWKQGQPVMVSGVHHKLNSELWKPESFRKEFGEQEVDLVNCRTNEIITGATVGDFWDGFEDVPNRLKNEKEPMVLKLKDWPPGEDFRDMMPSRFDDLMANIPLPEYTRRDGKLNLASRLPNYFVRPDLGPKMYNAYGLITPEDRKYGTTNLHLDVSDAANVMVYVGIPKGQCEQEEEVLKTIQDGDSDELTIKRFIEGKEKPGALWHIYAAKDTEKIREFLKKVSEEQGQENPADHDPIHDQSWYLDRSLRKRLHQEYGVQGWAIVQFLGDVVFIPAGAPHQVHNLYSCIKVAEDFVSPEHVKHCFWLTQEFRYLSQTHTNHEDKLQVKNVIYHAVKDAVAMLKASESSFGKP
Description: Inhibition of recombinant JMJD1A (unknown origin) incubated for 15 mins prior to substrate addition by AlphaScreen method

[2] = target: T2, Lysine-specific demethylase 2A (Homo sapiens, UniProt Q9Y2K7)
T2 sequence (Q9Y2K7 whole entry): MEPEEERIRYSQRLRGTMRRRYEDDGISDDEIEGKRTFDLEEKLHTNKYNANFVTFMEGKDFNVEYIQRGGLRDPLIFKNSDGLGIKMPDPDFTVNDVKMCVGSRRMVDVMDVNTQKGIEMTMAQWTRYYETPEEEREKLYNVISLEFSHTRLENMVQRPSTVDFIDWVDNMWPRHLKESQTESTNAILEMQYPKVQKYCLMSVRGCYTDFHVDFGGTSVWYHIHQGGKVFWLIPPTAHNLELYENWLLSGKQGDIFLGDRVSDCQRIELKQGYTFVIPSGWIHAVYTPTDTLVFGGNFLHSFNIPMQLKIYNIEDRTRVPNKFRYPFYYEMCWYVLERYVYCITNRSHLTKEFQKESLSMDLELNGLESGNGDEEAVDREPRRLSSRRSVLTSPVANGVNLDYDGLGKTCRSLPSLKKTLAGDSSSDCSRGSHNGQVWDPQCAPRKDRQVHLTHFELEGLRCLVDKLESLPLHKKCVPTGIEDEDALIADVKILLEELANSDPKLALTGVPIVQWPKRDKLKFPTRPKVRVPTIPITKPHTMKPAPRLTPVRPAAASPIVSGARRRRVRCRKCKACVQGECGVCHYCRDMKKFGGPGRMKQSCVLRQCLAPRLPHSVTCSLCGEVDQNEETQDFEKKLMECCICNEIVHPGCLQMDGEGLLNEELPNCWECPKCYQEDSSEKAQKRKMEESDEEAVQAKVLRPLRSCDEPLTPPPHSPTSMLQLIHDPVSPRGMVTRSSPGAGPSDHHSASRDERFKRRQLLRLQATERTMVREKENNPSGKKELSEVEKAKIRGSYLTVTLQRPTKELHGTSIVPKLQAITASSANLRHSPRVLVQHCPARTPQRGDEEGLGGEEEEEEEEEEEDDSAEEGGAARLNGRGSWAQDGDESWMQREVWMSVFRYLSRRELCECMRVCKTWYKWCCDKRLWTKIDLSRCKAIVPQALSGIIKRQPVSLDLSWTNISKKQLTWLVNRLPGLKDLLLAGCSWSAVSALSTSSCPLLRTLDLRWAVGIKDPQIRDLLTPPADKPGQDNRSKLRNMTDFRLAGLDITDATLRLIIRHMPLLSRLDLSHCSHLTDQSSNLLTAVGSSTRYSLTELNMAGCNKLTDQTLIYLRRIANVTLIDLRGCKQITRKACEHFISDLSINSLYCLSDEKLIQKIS
Description: Inhibition of recombinant FBXL11 (unknown origin) incubated for 15 mins prior to substrate addition by AlphaScreen method

[3] = target: Lysine-specific demethylase 5C (Homo sapiens, UniProt P41229)
Description: Inhibition of recombinant JARID1C (unknown origin) incubated for 15 mins prior to substrate addition by AlphaScreen method

[4] = target: Lysine-specific histone demethylase 1A (Homo sapiens, UniProt O60341)
Description: Inhibition of human recombinant His-tagged LSD1 (171 to 836) assessed as hydrogen peroxide formation after 5 mins

[5] = target: Lysine-specific demethylase 6B (Homo sapiens, UniProt O15054)
Chain of Lysine-specific demethylase 6B (O15054 whole entry): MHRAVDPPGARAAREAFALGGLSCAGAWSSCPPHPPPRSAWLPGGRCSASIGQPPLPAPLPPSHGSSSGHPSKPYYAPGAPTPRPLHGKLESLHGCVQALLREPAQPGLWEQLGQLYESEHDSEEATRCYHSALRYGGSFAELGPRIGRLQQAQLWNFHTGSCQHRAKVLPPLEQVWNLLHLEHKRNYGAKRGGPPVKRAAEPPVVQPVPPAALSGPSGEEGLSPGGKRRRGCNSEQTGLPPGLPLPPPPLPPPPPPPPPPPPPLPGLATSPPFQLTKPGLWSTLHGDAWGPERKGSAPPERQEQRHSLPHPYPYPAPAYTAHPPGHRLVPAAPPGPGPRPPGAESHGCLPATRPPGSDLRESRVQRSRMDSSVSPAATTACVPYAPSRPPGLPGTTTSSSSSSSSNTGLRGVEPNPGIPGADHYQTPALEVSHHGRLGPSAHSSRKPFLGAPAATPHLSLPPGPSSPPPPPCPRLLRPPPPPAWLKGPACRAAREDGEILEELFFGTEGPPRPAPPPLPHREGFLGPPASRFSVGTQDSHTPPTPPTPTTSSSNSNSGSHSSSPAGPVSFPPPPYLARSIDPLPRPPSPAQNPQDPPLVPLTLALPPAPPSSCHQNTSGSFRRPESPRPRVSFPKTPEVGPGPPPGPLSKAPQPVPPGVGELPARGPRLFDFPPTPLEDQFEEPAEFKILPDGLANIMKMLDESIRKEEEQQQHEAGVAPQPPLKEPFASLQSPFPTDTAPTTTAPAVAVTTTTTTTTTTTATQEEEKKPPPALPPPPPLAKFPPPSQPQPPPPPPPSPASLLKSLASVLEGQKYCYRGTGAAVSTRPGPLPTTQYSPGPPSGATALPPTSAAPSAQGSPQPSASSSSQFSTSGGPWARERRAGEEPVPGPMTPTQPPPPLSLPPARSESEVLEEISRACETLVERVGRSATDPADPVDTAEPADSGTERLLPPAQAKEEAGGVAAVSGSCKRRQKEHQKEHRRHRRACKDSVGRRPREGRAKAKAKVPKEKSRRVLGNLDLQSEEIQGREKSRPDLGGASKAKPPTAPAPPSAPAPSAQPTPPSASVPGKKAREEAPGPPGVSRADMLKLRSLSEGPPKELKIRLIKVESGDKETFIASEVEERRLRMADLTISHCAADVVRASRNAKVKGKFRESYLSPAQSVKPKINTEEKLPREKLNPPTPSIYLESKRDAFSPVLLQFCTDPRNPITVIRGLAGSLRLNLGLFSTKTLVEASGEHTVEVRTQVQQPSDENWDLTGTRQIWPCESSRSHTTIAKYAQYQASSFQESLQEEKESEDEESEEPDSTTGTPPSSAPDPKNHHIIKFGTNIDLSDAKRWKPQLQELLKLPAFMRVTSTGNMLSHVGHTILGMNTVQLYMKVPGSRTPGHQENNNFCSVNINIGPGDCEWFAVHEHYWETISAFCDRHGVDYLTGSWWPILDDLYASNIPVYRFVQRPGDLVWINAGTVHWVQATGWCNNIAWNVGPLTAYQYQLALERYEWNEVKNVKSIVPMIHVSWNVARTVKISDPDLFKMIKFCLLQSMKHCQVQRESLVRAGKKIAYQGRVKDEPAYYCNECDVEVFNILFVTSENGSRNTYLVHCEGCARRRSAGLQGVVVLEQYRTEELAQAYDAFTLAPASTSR
Description: Inhibition of recombinant JMJD3 (unknown origin) incubated for 15 mins prior to substrate addition by AlphaScreen method

Chain of Lysine-specific demethylase 5C (P41229 whole entry): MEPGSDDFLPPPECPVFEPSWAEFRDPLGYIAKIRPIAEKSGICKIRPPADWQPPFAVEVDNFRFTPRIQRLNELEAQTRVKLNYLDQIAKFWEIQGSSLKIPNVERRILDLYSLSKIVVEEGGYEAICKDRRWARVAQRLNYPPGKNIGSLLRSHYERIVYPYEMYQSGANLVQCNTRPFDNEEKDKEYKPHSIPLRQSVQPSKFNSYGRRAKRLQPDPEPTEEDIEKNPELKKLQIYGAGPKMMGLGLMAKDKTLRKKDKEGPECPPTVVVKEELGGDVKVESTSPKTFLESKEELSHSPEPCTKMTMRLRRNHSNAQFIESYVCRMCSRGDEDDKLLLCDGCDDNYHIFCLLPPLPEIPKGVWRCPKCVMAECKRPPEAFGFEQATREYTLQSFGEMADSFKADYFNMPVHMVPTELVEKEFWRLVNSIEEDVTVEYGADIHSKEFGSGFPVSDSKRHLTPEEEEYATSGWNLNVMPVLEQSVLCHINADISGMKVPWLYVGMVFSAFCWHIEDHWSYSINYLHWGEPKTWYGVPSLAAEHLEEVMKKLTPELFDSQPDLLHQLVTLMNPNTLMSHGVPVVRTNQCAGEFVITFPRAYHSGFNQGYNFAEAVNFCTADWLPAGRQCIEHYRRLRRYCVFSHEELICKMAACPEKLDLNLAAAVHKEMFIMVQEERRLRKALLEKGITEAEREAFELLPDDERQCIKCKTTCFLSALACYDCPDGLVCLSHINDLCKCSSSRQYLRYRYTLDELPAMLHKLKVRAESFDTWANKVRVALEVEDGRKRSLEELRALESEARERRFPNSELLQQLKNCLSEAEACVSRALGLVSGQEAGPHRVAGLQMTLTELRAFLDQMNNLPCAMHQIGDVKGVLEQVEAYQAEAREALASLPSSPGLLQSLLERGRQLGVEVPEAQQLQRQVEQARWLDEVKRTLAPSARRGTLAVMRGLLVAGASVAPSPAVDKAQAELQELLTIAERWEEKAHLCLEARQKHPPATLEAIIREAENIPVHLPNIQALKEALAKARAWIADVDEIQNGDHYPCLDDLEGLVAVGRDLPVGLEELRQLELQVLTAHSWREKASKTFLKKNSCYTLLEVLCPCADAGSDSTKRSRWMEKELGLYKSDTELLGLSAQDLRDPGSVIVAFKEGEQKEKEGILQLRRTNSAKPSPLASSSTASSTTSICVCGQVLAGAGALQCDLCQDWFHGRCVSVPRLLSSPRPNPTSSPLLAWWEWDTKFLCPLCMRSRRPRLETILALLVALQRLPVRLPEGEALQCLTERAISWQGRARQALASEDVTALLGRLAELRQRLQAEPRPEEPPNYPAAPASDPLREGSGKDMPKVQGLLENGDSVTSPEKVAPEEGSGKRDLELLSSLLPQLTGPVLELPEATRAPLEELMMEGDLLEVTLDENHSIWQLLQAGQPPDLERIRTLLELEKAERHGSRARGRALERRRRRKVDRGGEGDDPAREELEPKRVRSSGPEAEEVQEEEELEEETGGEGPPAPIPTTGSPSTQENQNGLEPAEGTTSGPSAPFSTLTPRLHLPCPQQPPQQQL

Row | SMILES | IC50 [1] | IC50 [2] | IC50 [3] | IC50 [4] | IC50 [5]
1 | COC(=O)c1ccnc(-c2cc(C(=O)O)ccn2)c1 | 1.1 µM | 4.8 µM | 0.03 µM | > 100 µM | 11.2 µM
2 | Cl.N[C@@H]1C[C@H]1c1ccc(NC(=O)c2ccc(O)c3ncccc23)cc1 (relative stereo) | 31 µM | 7.8 µM | 26 µM | < 1 µM | 27 µM
3 | N[C@H]1C[C@@H]1c1ccc(NC(=O)CCCNC(=O)c2ccc(O)c3ncccc23)cc1 (relative stereo) | 12 µM | 12 µM | 35 µM | < 1 µM | 18 µM
4 | N[C@H]1C[C@@H]1c1ccc(NC(=O)CCCCNC(=O)c2ccc(O)c3ncccc23)cc1 (relative stereo) | 9.7 µM | 8.2 µM | 21 µM | 1.6 µM | 14 µM
5 | Cl.N[C@H]1C[C@@H]1c1ccc(NC(=O)CCCCCNC(=O)c2ccc(O)c3ncccc23)cc1 (relative stereo) | 9.1 µM | 12 µM | 37 µM | 1 µM | 16 µM
6 | N[C@@H]1C[C@H]1c1ccc(NC(=O)c2ccnc(-c3cc(C(=O)O)ccn3)c2)cc1 (relative stereo) | 0.14 µM | 0.22 µM | 0.19 µM | 2.2 µM | 2.7 µM
7 | COC(=O)c1ccnc(-c2cc(C(=O)Nc3ccc([C@@H]4C[C@H]4N)cc3)ccn2)c1.Cl (relative stereo) | 37 µM | 12.2 µM | 8.5 µM | < 1 µM | 76 µM
